Results as given in patent US20140024527A1, “HERBICIDAL PYRAZINONES” (E I DU DE NEMOURS AND COMPANY, priority 2011, published 2014).

Columns and labels:
Assay type in all cases: in vivo
[1] = test system: giant foxtail (Setaria faberii); assay: Test A preemergence; details: 0 to 100 scale, 0 no effect, 100 complete control, approx. 10 days
Excerpt: (§1) Seeds of barnyardgrass (Echinochloa crus-galli), large crabgrass (Digitaria sanguinalis), giant foxtail (Setaria faberii), morningglory (Ipomoea spp.), pigweed (Amaranthus retroflexus), velvetleaf (Abutilon theophrasti), wheat (Triticum aestivum) and corn (Zea mays) were planted into a blend of loam soil and sand and treated preemergence with a directed soil spray using test chemicals formulated in a non-phytotoxic solvent mixture which included a surfactant. At the same time these species were also treated with postemergence applications of test compounds formulated in the same manner. Plants ranged in height from 2 to 10 cm and were in the one- to two-leaf stage for the postemergence treatments. Treated plants and untreated controls were maintained in a greenhouse for approximately 10 days, after which time all treated plants were compared to untreated controls and visually evaluated for injury. Plant response ratings, summarized in Table A, are based on a 0 to 100 scale where 0 is no effect and 100 is complete control.

[2] = test system: barnyardgrass (Echinochloa crus-galli); assay: Test A preemergence; details: 0 to 100 scale, 0 no effect, 100 complete control, approx. 10 days
Excerpt: as §1

corn (Zea mays) [3] = assay: Test A preemergence; details: 0 to 100 scale, 0 no effect, 100 complete control, approx. 10 days
Excerpt: as §1

[4] = test system: morningglory (Ipomoea spp.); assay: Test A preemergence; details: 0 to 100 scale, 0 no effect, 100 complete control, approx. 10 days
Excerpt: as §1

[5] = test system: wheat (Triticum aestivum); assay: Test A preemergence; details: 0 to 100 scale, 0 no effect, 100 complete control, approx. 10 days
Excerpt: as §1

[6] = test system: velvetleaf (Abutilon theophrasti); assay: Test A preemergence; details: 0 to 100 scale, 0 no effect, 100 complete control, approx. 10 days
Excerpt: as §1

[7] = test system: large crabgrass (Digitaria sanguinalis); assay: Test A preemergence; details: 0 to 100 scale, 0 no effect, 100 complete control, approx. 10 days
Excerpt: as §1

[8] = test system: pigweed (Amaranthus retroflexus); assay: Test A preemergence; details: 0 to 100 scale, 0 no effect, 100 complete control, approx. 10 days
Excerpt: as §1

[9] = test system: barnyardgrass (Echinochloa crus-galli); assay: Test B flooded paddy test; details: Flood
Excerpt: (§2) Plant species in the flooded paddy test consisted of rice (Oryza sativa), umbrella sedge (Cyperus difformis), ducksalad (Heteranthera limosa) and barnyardgrass (Echinochloa crus-galli) grown to the 2-leaf stage for testing. At time of treatment, test pots were flooded to 3 cm above the soil surface, treated by application of test compounds directly to the paddy water, and then maintained at that water depth for the duration of the test. Treated plants and controls were maintained in a greenhouse for 13 to 15 days, after which time all species were compared to controls and visually evaluated. Plant response ratings, summarized in Table B, are based on a scale of 0 to 100 where 0 is no effect and 100 is complete control. A dash (-) response means no test result.

[10] = test system: umbrella sedge (Cyperus difformis); assay: Test B flooded paddy test; details: Flood, scale 0 to 100
Excerpt: as §2

rice (Oryza sativa) = assay: Test B flooded paddy test; details: Flood, scale 0 to 100
Excerpt: as §2

[11] = test system: ducksalad (Heteranthera limosa); assay: Test B flooded paddy test; details: Flood, scale 0 to 100
Excerpt: as §2

[12] = test system: giant foxtail (Setaria faberii); assay: Test A postemergence; details: 0 to 100 scale, 0 no effect, 100 complete control, approx. 10 days
Excerpt: as §1

[13] = test system: barnyardgrass (Echinochloa crus-galli); assay: Test A postemergence; details: 0 to 100 scale, 0 no effect, 100 complete control, approx. 10 days
Excerpt: as §1

corn (Zea mays) [14] = assay: Test A postemergence; details: 0 to 100 scale, 0 no effect, 100 complete control, approx. 10 days
Excerpt: as §1

[15] = test system: morningglory (Ipomoea spp.); assay: Test A postemergence; details: 0 to 100 scale, 0 no effect, 100 complete control, approx. 10 days
Excerpt: as §1

[16] = test system: wheat (Triticum aestivum); assay: Test A postemergence; details: 0 to 100 scale, 0 no effect, 100 complete control, approx. 10 days
Excerpt: as §1

[17] = test system: velvetleaf (Abutilon theophrasti); assay: Test A postemergence; details: 0 to 100 scale, 0 no effect, 100 complete control, approx. 10 days
Excerpt: as §1

[18] = test system: large crabgrass (Digitaria sanguinalis); assay: Test A postemergence; details: 0 to 100 scale, 0 no effect, 100 complete control, approx. 10 days
Excerpt: as §1

[19] = test system: pigweed (Amaranthus retroflexus); assay: Test A postemergence; details: 0 to 100 scale, 0 no effect, 100 complete control, approx. 10 days
Excerpt: as §1

## O=C1CCCC(O)=C1C(=O)c1nc(Cl)c(-c2cccc(F)c2)n(C2CCCCC2)c1=O [Compound 2, 5-chloro-1-cyclohexyl-6-(3-fluorophenyl)-3-[(2-hydroxy-6-oxo-1-cyclohexen-1-yl)carbonyl]-2(1H)pyrazinone]
[1]; 125 g ai/ha
  Plant response rating, Foxtail, Giant: 0
[1]; 500 g ai/ha
  Plant response rating, Foxtail, Giant: 30
[2]; 125 g ai/ha
  Plant response rating, Barnyardgrass: 0
[2]; 500 g ai/ha
  Plant response rating, Barnyardgrass: 40
Corn (Zea mays) [3]; 125 g ai/ha
  Plant response rating, Corn: 0
Corn (Zea mays) [3]; 500 g ai/ha
  Plant response rating, Corn: 0
[4]; 125 g ai/ha
  Plant response rating, Morningglory: 0
[4]; 500 g ai/ha
  Plant response rating, Morningglory: 80
[5]; 125 g ai/ha
  Plant response rating, Wheat: 0
[5]; 500 g ai/ha
  Plant response rating, Wheat: 0
[6]; 125 g ai/ha
  Plant response rating, Velvetleaf: 0
[6]; 500 g ai/ha
  Plant response rating, Velvetleaf: 90
[7]; 125 g ai/ha
  Plant response rating, Crabgrass, Large: 0
[7]; 500 g ai/ha
  Plant response rating, Crabgrass, Large: 50
[8]; 125 g ai/ha
  Plant response rating, Pigweed: 0
[8]; 500 g ai/ha
  Plant response rating, Pigweed: 80
[9]; 31 g ai/ha, scale 0 to 100
  Plant response rating, Barnyardgrass: 0
[9]; 62 g ai/ha, scale 0 to 100
  Plant response rating, Barnyardgrass: 0
[9]; 125 g ai/ha, scale 0 to 100
  Plant response rating, Barnyardgrass: 0
[9]; 250 g ai/ha, scale 0 to 100 (0 no effect, 100 complete control)
  Plant response rating, Barnyardgrass: 0
[10]; 31 g ai/ha
  Plant response rating, Sedge, Umbrella: 0
[10]; 62 g ai/ha
  Plant response rating, Sedge, Umbrella: 0
[10]; 125 g ai/ha
  Plant response rating, Sedge, Umbrella: 20
[10]; 250 g ai/ha
  Plant response rating, Sedge, Umbrella: 60
Rice (Oryza sativa); 31 g ai/ha
  Plant response rating, Rice: 0
Rice (Oryza sativa); 62 g ai/ha
  Plant response rating, Rice: 0
Rice (Oryza sativa); 125 g ai/ha
  Plant response rating, Rice: 0
Rice (Oryza sativa); 250 g ai/ha
  Plant response rating, Rice: 0
[11]; 31 g ai/ha
  Plant response rating, Ducksalad: 0
[11]; 62 g ai/ha
  Plant response rating, Ducksalad: 0
[11]; 125 g ai/ha
  Plant response rating, Ducksalad: 60
[11]; 250 g ai/ha
  Plant response rating, Ducksalad: 80
[12]; 125 g ai/ha
  Plant response rating, Foxtail, Giant: 0
[12]; 500 g ai/ha
  Plant response rating, Foxtail, Giant: 20
[13]; 125 g ai/ha
  Plant response rating, Barnyardgrass: 0
[13]; 500 g ai/ha
  Plant response rating, Barnyardgrass: 30
Corn (Zea mays) [14]; 125 g ai/ha
  Plant response rating, Corn: 0
Corn (Zea mays) [14]; 500 g ai/ha
  Plant response rating, Corn: 0
[15]; 125 g ai/ha
  Plant response rating, Morningglory: 60
[15]; 500 g ai/ha
  Plant response rating, Morningglory: 90
[16]; 125 g ai/ha
  Plant response rating, Wheat: 0
[16]; 500 g ai/ha
  Plant response rating, Wheat: 0
[17]; 125 g ai/ha
  Plant response rating, Velvetleaf: 70
[17]; 500 g ai/ha
  Plant response rating, Velvetleaf: 100
[18]; 125 g ai/ha
  Plant response rating, Crabgrass, Large: 0
[18]; 500 g ai/ha
  Plant response rating, Crabgrass, Large: 30
[19]; 125 g ai/ha
  Plant response rating, Pigweed: 30
[19]; 500 g ai/ha
  Plant response rating, Pigweed: 70
